Laboratory results published in US11926644B2, “Syntheses, activities, and methods of use of dihydronicotinamide riboside derivatives” (Cornell University, priority 2015, dated 2024).

How the values were obtained:
HEK293 cells = experiment: NAD+ measurement in HEK293 cells (NAD+ cycling assay); settings: for cellular NAD concentration: 6 hours of incubation, 50-500 μM
Protocol: Cell number were counted using hemocytometer.
After 6 hours of incubation, cells were harvested with Trypsin. A cell count was obtained from each cell suspension by hemacytometer. The cell pellets were used for NAD^+ measurement.
Water-only and nicotinamide riboside (NR) control treatments were run.
HEK cells were plated in 6-well plates until 90% confluent. […] After 6 hours of incubation, cells were harvested with Trypsin. A cell count was obtained from each cell suspension by hemacytometer. The cell pellets were used for NAD^+ measurement.

INS1 cells = experiment: Glucose-induced insulin secretion test in INS1 cells with hydrogen peroxide challenge; format: cell-based; settings: 1 mM, 100 μM hydrogen peroxide, 15 mmol/l glucose
Protocol: To induce insulin secretion, INS1 cells were seeded in 6-well plate. The cells were accommodated to low glucose RPMI-1640 media with 5 mmol/1 D-glucose overnight. Insulin secretion was assayed in HEPES balanced salt solution (HESS) (114 mmol/1 NaCl, 4.7 mmol/1 KCl, 1.2 mmol/1 KH2PO4, 1.16 mmol/1 MgSO4, 20 mmol/1 HEPES, 2.5 mmol/1 CaCl2, 25.5 mmol/1 NaHCO3, and 0.2% bovine serum albumin [essentially fatty acid free], pH 7.2). Cells wore washed in 1 ml HESS with 3 mmol/1 glucose followed by a 2 hr preincubation in 2 ml of the same buffer. Insulin secretion was then measured by incubating 1 hr 1 ml of HESS containing the 3 mmol/1 or 15 mmol/1 glucose concentration. The media was then collected for insulin analysis using RayBio™ Rat Insulin ELISA kit according to manufacturer's manual. In hydrogen peroxide challenge, 100 μM hydrogen peroxide were added to media together with 3 mmol/1 glucose containing HESS and incubated for 2 hr before switch to 15 mmol/l glucose containing HBSS for insulin secretion.

[1] = HEK cells, 50 μM, 6 hours, percentages of average NAD^+ as compared to control

SMILES	Average NAD^+ (pmoles/10^6 cells) (HEK293 cells; [1])	cellular NAD concentration (HEK293 cells; HEK cells)	further results
CCCCOC(=O)C1=CN([C@@H]2O[C@H](CO)[C@H](O)[C@@H]2O)C=CC1 [Bu NaR—H, butyl-1-((2R,3S,4R,5R)-3,4-dihydroxy-5-(hydroxymethyl)tetrahydrofuran-2-yl)-1,4-dihydropyridine-3-carboxylate]	124%	–	–
CCOC(=O)C1=CN([C@@H]2O[C@H](CO)[C@H](O)[C@@H]2O)C=CC1 [Et NaR-H, ethyl-1-((2R,3S,4R,5R)-3,4-dihydroxy-5-(hydroxymethyl)tetrahydrofuran-2-yl)-1,4-dihydropyridine-3-carboxylate]	–	increased	–
CCCCCCCOC(=O)C1=CN([C@@H]2O[C@H](CO)[C@H](O)[C@@H]2O)C=CC1 [Hep NaR—H, heptyl-1-((2R,3S,4R,5R)-3,4-dihydroxy-5-(hydroxymethyl)tetrahydrofuran-2-yl)-1,4-dihydropyridine-3-carboxylate]	124%	–	–
NC(=O)c1ccc[n+]([C@@H]2O[C@H](CO)[C@@H](O)[C@H]2O)c1 [NR, nicotinamide riboside]	–	–	insulin secretion level under hydrogen peroxide (INS1 cells): restored the insulin secretion level back to a similar extent as untreated control; increase in NAD^+ (HEK293 cells; HEK293, 1000 mM as printed (1 mM elsewhere in the source)): 148%; Average NAD^+ (pmoles/10^6 cells) (HEK293 cells; HEK293, 1000 mM as printed in table (1 mM elsewhere in the source), compared to control): 148%
CCCCCCCCOC(=O)C1=CN([C@@H]2O[C@H](CO)[C@H](O)[C@@H]2O)C=CC1 [Oct NaR—H, octyl-1-((2R,3S,4R,5R)-3,4-dihydroxy-5-(hydroxymethyl)tetrahydrofuran-2-yl)-1,4-dihydropyridine-3-carboxylate]	112%	–	–
CCCOC(=O)C1=CN([C@@H]2O[C@H](CO)[C@H](O)[C@@H]2O)C=CC1 [Pr NaR-H, propyl-1-((2R,3S,4R,5R)-3,4-dihydroxy-5-(hydroxymethyl)tetrahydrofuran-2-yl)-1,4-dihydropyridine-3-carboxylate]	–	increased	–
